Results taken from patent US8399681B2, “Substituted aminothiazolone indazoles as estrogen related receptor-alpha modulators” (Janssen Pharmaceutica NV, priority 2009, dated 2013).

biological target: T1, ERR1 (also known as ERR-α or ERR-1) (Homo sapiens, UniProt P11474); experiment: TR-FRET assay (disruption of co-activator peptide binding); type: biochemical; conditions: 6His-tagged ERR1 LBD, GST-hSRC2 co-activator polypeptide; average of 3 independent experiments
T1 sequence (P11474 193-421 limits assumed): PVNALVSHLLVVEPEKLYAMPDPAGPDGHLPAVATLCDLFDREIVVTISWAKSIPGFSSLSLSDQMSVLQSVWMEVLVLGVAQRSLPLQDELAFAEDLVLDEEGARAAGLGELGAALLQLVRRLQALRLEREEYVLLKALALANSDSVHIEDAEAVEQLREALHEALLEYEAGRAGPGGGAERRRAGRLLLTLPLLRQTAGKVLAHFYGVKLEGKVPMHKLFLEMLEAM
Outline: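 His6-ERR1 LBD (6 nM) with GST-SRC-2 peptide (6 nM), anti-GST Eu cryptate (30 nM) and anti-His XL665 (7.5 nM) in Tris pH 8/KCl/DTT/BSA buffer, equilibrated 4-18 h at 25 °C. Ex 340, em 615/665 nm; hyperbolic dose-response fit, mean of 3 experiments.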

Row | EC50 | SMILES
1 | 9 nM | NC(=O)CN1CCN(C2=NC(=O)/C(=C/c3ccc4c(cnn4Cc4ccc(Cl)cc4C(F)(F)F)c3)S2)CC1 [Example 79, 2-(4-{5-[1-(4-Chloro-2-trifluoromethyl-benzyl)-1H-indazol-5-ylmethylene]-4-oxo-4,5-dihydro-thiazol-2-yl}-piperazin-1-yl)-acetamide]
2 | 5.7 nM | O=C1N=C(N2C[C@@H]3C[C@H]2CN3CCO)S/C1=C\c1ccc2c(cnn2Cc2ccc(Cl)cc2C(F)(F)F)c1 [Example 80, 5-[1-(4-Chloro-2-trifluoromethyl-benzyl)-1H-indazol-5-ylmethylene]-2-[5-(2-hydroxy-ethyl)-2S,5S-diaza-bicyclo[2.2.1]hept-2-yl]-thiazol-4-one]
3 | 68.8 nM | CCOCCN1CCN(C2=NC(=O)/C(=C/c3ccc4c(cnn4Cc4ccc(Cl)cc4C(F)(F)F)c3)S2)CC1 [Example 81, 5-[1-(4-Chloro-2-trifluoromethyl-benzyl)-1H-indazol-5-ylmethylene]-2-[4-(2-ethoxy-ethyl)-piperazin-1-yl]-thiazol-4-one]
4 | 7.6 nM | CNC(=O)CN1CCN(C2=NC(=O)/C(=C/c3ccc4c(cnn4Cc4ccc(Cl)cc4C(F)(F)F)c3)S2)CC1 [Example 82, 2-(4-{5-[1-(4-Chloro-2-trifluoromethyl-benzyl)-1H-indazol-5-ylmethylene]-4-oxo-4,5-dihydro-thiazol-2-yl}piperazin-1-yl)-N-methyl-acetamide]
5 | 15 nM | C[C@@H]1CNCCN1C1=NC(=O)/C(=C/c2ccc3c(cnn3Cc3ccc(Cl)cc3C(F)(F)F)c2)S1 [Example 83, 5-[1-(4-Chloro-2-trifluoromethyl-benzyl)-1H-indazol-5-ylmethylene]-2-(2-(R)-methyl-piperazin-1-yl)-thiazol-4-one]
6 | 39 nM | CC(C)(C)N1CCN(C2=NC(=O)/C(=C/c3ccc4c(cnn4Cc4ccc(Cl)cc4C(F)(F)F)c3)S2)CC1 [Example 84, 2-(4-tert-Butyl-piperazin-1-yl)-5-[1-(4-chloro-2-trifluoromethyl-benzyl)-1H-indazol-5-ylmethylene]-thiazol-4-one]
7 | 8.6 nM | COCCN1C[C@@H]2C[C@H]1CN2C1=NC(=O)/C(=C/c2ccc3c(cnn3Cc3ccc(Cl)cc3C(F)(F)F)c2)S1 [Example 85, 5-[1-(4-Chloro-2-trifluoromethyl-benzyl)-1H-indazol-5-ylmethylene]-2-[5-(2-methoxy-ethyl)-2S,5S-diaza-bicyclo[2.2.1]hept-2-yl]-thiazol-4-one]
8 | 13 nM | COCC(=O)N1[C@H](C)CN(C2=NC(=O)/C(=C/c3ccc4c(cnn4Cc4ccc(Cl)cc4C(F)(F)F)c3)S2)C[C@@H]1C [Example 88, 5-[1-(4-Chloro-2-trifluoromethyl-benzyl)-1H-indazol-5-ylmethylene]-2-[4-(2-methoxy-acetyl)cis-3,5-dimethyl-piperazin-1-yl]-thiazol-4-one]
9 | 4.7 nM | COCC(=O)N1C[C@@H]2C[C@H]1CN2C1=NC(=O)/C(=C/c2ccc3c(cnn3Cc3ccc(Cl)cc3C(F)(F)F)c2)S1 [Example 89, 5-[1-(4-Chloro-2-trifluoromethyl-benzyl)-1H-indazol-5-ylmethylene]-2-[5-(2-methoxy-acetyl)-2S,5S-diaza-bicyclo[2.2.1]hept-2-yl]-thiazol-4-one]
10 | 3.4 nM | COCC(=O)N1CCN(C2=NC(=O)/C(=C/c3ccc4c(cnn4Cc4ccc(Cl)cc4C(F)(F)F)c3)S2)[C@H](C)C1 [Example 90, 5-[1-(4-Chloro-2-trifluoromethyl-benzyl)-1H-indazol-5-ylmethylene]-2-[4-(2-methoxy-acetyl)-2-(R)-methyl-piperazin-1-yl]-thiazol-4-one]
11 | 8.7 nM | COCC(=O)N1CCN(C2=NC(=O)/C(=C/c3ccc4c(cnn4Cc4ccc(Cl)cc4C(F)(F)F)c3)S2)CC1 [Example 91, 5-[1-(4-Chloro-2-trifluoromethyl-benzyl)-1H-indazol-5-ylmethylene]-2-[4-(2-methoxy-acetyl)-piperazin-1-yl]-thiazol-4-one]
12 | 49 nM | NC1CN(C2=NC(=O)/C(=C/c3ccc4c(cnn4Cc4ccc(Cl)cc4C4CC4)c3)S2)C1 [Example 92, 2-(3-Amino-azetidin-1-yl)-5-[1-(4-chloro-2-cyclopropyl-benzyl)-1H-indazol-5-ylmethylene]-thiazol-4-one]
13 | 14.4 nM | CN1CCN(C2=NC(=O)/C(=C/c3ccc4c(cnn4Cc4ccc(Cl)cc4C4CC4)c3)S2)CC1 [Example 93, 5-[1-(4-Chloro-2-cyclopropyl-benzyl)-1H-indazol-5-ylmethylene]-2-(4-methyl-piperazin-1-yl)-thiazol-4-one]
14 | 26 nM | O=C1N=C(N2CC(C(=O)O)C2)S/C1=C\c1ccc2c(cnn2Cc2ccc(Cl)cc2C2CC2)c1 [Example 94, 1-(5-[1-(4-Chloro-2-cyclopropyl-benzyl)-1H-indazol-5-ylmethylene]-4-oxo-dihydro-thiazol-2-yl)-azetidine-3-carboxylic acid]
15 | 11 nM | CN1CCN(C2=NC(=O)/C(=C/c3ccc4c(cnn4Cc4ccc(Cl)cc4Br)c3)S2)CC1 [Example 95, 5-[1-(2-bromo-4-chlorobenzyl)-1H-indazol-5-ylmethylene]-2-(4-methyl-piperazin-1-yl)-thiazol-4-one]
16 | 64 nM | CN1CCN(C2=NC(=O)/C(=C/c3ccc4c(cnn4Cc4ccc(Cl)cc4I)c3)S2)CC1 [Example 96, 5-[1-(4-Chloro-2-iodo-benzyl)-1H-indazol-5-ylmethylene]-2-(4-methyl-piperazin-1-yl)-thiazol-4-one]
17 | 29 nM | CC(=O)c1cc(Cl)ccc1Cn1ncc2cc(/C=C3\SC(N4CCN(C)CC4)=NC3=O)ccc21 [Example 97, 5-[1-(2-Acetyl-4-chloro-benzyl)-1H-indazol-5-ylmethylene]-2-(4-methyl-piperazin-1-yl)-thiazol-4-one]
18 | 2.8 nM | O=C1N=C(N2C[C@@H](O)[C@H](O)C2)S/C1=C\c1ccc2c(cnn2Cc2ccc(Cl)cc2C(F)(F)F)c1 [Example 99, 5-[1-(4-Chloro-2-trifluoromethyl-benzyl)-1H-indazol-5-ylmethylene]-2-(3R,4R-dihydroxy-pyrrolidin-1-yl)-thiazol-4-one]
19 | 14 nM | O=C1N=C(N2CC3CC2CN3)S/C1=C\c1ccc2c(cnn2Cc2ccc(Cl)cc2C(F)(F)F)c1 [Example 100, 5-[1-(4-Chloro-2-trifluoromethyl-benzyl)-1H-indazol-5-ylmethylene]-2-(2S,5S-diaza-bicyclo[2.2.1]hept-2-yl)-thiazol-4-one]
20 | 22 nM | O=C1CN(C2=NC(=O)/C(=C/c3ccc4c(cnn4Cc4ccc(Cl)cc4C(F)(F)F)c3)S2)C1 [Example 102, 5-[1-(4-Chloro-2-trifluoromethyl-benzyl)-1H-indazol-5-ylmethylene]-2-(3-oxo-azetidin-1-yl)-thiazol-4-one]
21 | 18.2 nM | O=C1N=C(N2CCNC[C@@H]2CO)S/C1=C\c1ccc2c(cnn2Cc2ccc(C(F)(F)F)cc2C(F)(F)F)c1 [Example 104, 5-[1-(2,4-Bis-trifluoromethyl-benzyl)-1H-indazol-5-ylmethylene]-2-(2-hydroxymethyl-piperazin-1-yl)-thiazol-4-one]
22 | 40.9 nM | O=C1N=C(N2CCNC[C@@H]2CO)S/C1=C\c1ccc2c(cnn2Cc2ccc(Cl)cc2C(F)(F)F)c1 [Example 105, 5-[1-(4-Chloro-2-trifluoromethyl-benzyl)-1H-indazol-5-ylmethylene]-2-(2-hydroxymethyl-piperazin-1-yl)-thiazol-4-one]
23 | 21 nM | NC(=O)C1CCN(C2=NC(=O)/C(=C/c3ccc4c(cnn4Cc4ccc(C(F)(F)F)cc4C(F)(F)F)c3)S2)CC1 [Example 106, 1-{5-[1-(2,4-Bis-trifluoromethyl-benzyl)-1H-indazol-5-ylmethylene]-4-oxo-4,5-dihydro-thiazol-2-yl}-piperidine-4-carboxylic acid amide]
24 | 30.2 nM | CC(=O)NC1CCN(C2=NC(=O)/C(=C/c3ccc4c(cnn4Cc4ccc(C(F)(F)F)cc4C(F)(F)F)c3)S2)CC1 [Example 108, N-(1-{5-[1-(2,4-Bis-trifluoromethyl-benzyl)-1H-indazol-5-ylmethylene]-4-oxo-4,5-dihydro-thiazol-2-yl}-piperidin-4-yl)-acetamide]

Row | SMILES | EC50
25 | CN1C[C@H]2CC[C@@H](C1)N2C1=NC(=O)/C(=C/c2ccc3c(cnn3Cc3ccc(C(F)(F)F)cc3C(F)(F)F)c2)S1 [Example 86, 5-[1-(2,4-Bis-trifluoromethyl-benzyl)-1H-indazol-5-ylmethylene]-2-(3-methyl-3,8-diaza-bicyclo[3.2.1]oct-8-yl)-thiazol-4-one] | 20 nM
26 | CN1C[C@H]2CC[C@@H](C1)N2C1=NC(=O)/C(=C/c2ccc3c(cnn3Cc3ccc(Cl)cc3C(F)(F)F)c2)S1 [Example 87, 5-[1-(4-Chloro-2-trifluoromethyl-benzyl)-1H-indazol-5-ylmethylene]-2-(3-methyl-3,8-diaza-bicyclo[3.2.1]oct-8-yl)-thiazol-4-one] | 15 nM
27 | CN1C2CCC1CN(C1=NC(=O)/C(=C/c3ccc4c(cnn4Cc4ccc(Cl)cc4C(F)(F)F)c3)S1)C2 [Example 101, 5-[1-(4-Chloro-2-trifluoromethyl-benzyl)-1H-indazol-5-ylmethylene]-2-(8-methyl-3,8-diaza-bicyclo[3.2.1]oct-3-yl)-thiazol-4-one] | 21.4 nM
28 | CN1C2CCC1CN(C1=NC(=O)/C(=C/c3ccc4c(cnn4Cc4ccc(C(F)(F)F)cc4C(F)(F)F)c3)S1)C2 [Example 103, 5-[1-(2,4-Bis-trifluoromethyl-benzyl)-1H-indazol-5-ylmethylene]-2-(8-methyl-3,8-diaza-bicyclo[3.2.1]oct-3-yl)-thiazol-4-one] | 12.2 nM
